Reference: EP4745137A1 (Gluetacs Therapeutics (Shanghai) Co., Ltd., priority 2023, dated 2025)

Experiments:
[1] = target: T1, IKZF3 (Homo sapiens, UniProt Q96SW2+Q9UKT9); assay: Western-blot assay of substrate protein degradation in hPBMCs, IKZF3; assay type: cell-based; settings: 24 hours of compound treatment, compounds tested at 50 nM and 500 nM (concentration of the table not stated)
T1 construct: endogenous in cells; host or cells: hPBMCs (Milecell Biotechnologies)

[2] = test system: Human acute T lymphocytic leukemia cells (Molt-4); assay: Tumor cell proliferation inhibition (CellTiter-Meiluncell Luminescent Cell Viability Assay), Molt-4; settings: MOLT-4, 96 h, read-out: inhibitory activity (IC50, nM) against tumor cells proliferation, Molt 4
[3] = target: T2, IKZF2 (Homo sapiens, UniProt Q96SW2+Q9UKS7); assay: Western-blot assay of substrate protein degradation in hPBMCs, IKZF2; assay type: cell-based; settings: 24 hours of compound treatment, compounds tested at 50 nM and 500 nM (concentration of the table not stated)
T2 construct: endogenous in cells; host or cells: hPBMCs (Milecell Biotechnologies)

[4] = target: T3, WEE1 (Homo sapiens, UniProt P30291+Q96SW2); assay: Western-blot assay of substrate protein degradation in hPBMCs, WEE1; assay type: cell-based; settings: 24 hours of compound treatment, compounds tested at 50 nM and 500 nM (concentration of the table not stated)
T3 construct: endogenous in cells; host or cells: hPBMCs (Milecell Biotechnologies)

[5] = target: T4, CK1α (Homo sapiens, UniProt P48729+Q96SW2); assay: Western-blot assay of substrate protein degradation in hPBMCs, CK1α; assay type: cell-based; settings: 24 hours of compound treatment, compounds tested at 50 nM and 500 nM (concentration of the table not stated)
T4 construct: endogenous in cells; host or cells: hPBMCs (Milecell Biotechnologies)

[6] = test system: SR; assay: Tumor cell proliferation inhibition (CellTiter-Meiluncell Luminescent Cell Viability Assay), SR; settings: Homo sapiens, 96 h, read-out: inhibitory activity (IC50, nM) against tumor cells proliferation, SR
Method: The tumor cells used herein were cultured in a cell culture medium listed in table 2 at 37°C in an incubator with 5% CO2. Prior to experimentation, all cell lines used were correctly identified by STR profiling, and tested negative for mycoplasma contamination using a mycoplasma detection kit through routine screenings.
On the following day, the test compounds of the present disclosure were subjected to serial dilution. […] Subsequently, 0.5 µL of the test compound dilution was transferred into the 96-well plate containing the cells, with each well containing 100 µL of cell culture medium. […] Into the 96-well plate, the diluted test compounds and corresponding detection reagents were added, resulting in final test compound concentrations of 500 nM and 10 nM, respectively.
After the cells were treated with the compounds of the present disclosure for a specified period (the treatment durations were shown in Table 3), the cell viability assay reagent was added to the culture medium according to the kit's instructions to determine cell viability. […] All controls were treated using the same procedure as the compounds of the present disclosure. The growth inhibition curves for the compounds of the present disclosure were plotted using Prism GraphPad software, and the IC50 values were calculated therefrom.

[7] = test system: MGC803; assay: Tumor cell proliferation inhibition (CellTiter-Meiluncell Luminescent Cell Viability Assay), MGC803; settings: Homo sapiens, MGC-803, 96 h, read-out: inhibitory activity (IC50, nM) against tumor cells proliferation, MGC803
[8] = test system: MM.1R; assay: Tumor cell proliferation inhibition (CellTiter-Meiluncell Luminescent Cell Viability Assay), MM.1R; settings: Homo sapiens, 96 h, read-out: inhibitory activity (IC50, nM) against tumor cells proliferation, MM.1R
[9] = target: T5, IKZF1 (Homo sapiens, UniProt Q13422+Q96SW2); assay: Western-blot assay of substrate protein degradation in hPBMCs, IKZF1; assay type: cell-based; settings: 24 hours of compound treatment, compounds tested at 50 nM and 500 nM (concentration of the table not stated)
T5 construct: endogenous in cells; host or cells: hPBMCs (Milecell Biotechnologies)

[10] = test system: CAL-62; assay: Tumor cell proliferation inhibition (CellTiter-Meiluncell Luminescent Cell Viability Assay), CAL-62; settings: Homo sapiens, CAL-62, 96 h, read-out: inhibitory activity (IC50, nM) against tumor cells proliferation, CAL-62
[11] = test system: NCI-H1975; assay: Tumor cell proliferation inhibition (CellTiter-Meiluncell Luminescent Cell Viability Assay), NCI-H1975; settings: Homo sapiens, NCI-H1975, 96 h, read-out: inhibitory activity (IC50, nM) against tumor cells proliferation, H1975
[12] = test system: Vcap; assay: Tumor cell proliferation inhibition (CellTiter-Meiluncell Luminescent Cell Viability Assay), Vcap; settings: Homo sapiens, 96 h, read-out: inhibitory activity (IC50, nM) against tumor cells proliferation, Vcap
[13] = target: T6, human Cereblon WT GST-tagged protein (Homo sapiens, UniProt Q96SW2); assay: CRBN-binding affinity by HTRF (CEREBLON BINDING kit); settings: HTRF inhibitory activity, CEREBLON BINDING kit; read-out: HTRF IC50
T6 construct: purchased CISBIO 64BDCRBNPEH

[14] = test system: Jurkat; assay: Tumor cell proliferation inhibition (CellTiter-Meiluncell Luminescent Cell Viability Assay), Jurkat; settings: Homo sapiens, 96 h, read-out: inhibitory activity (IC50, nM) against tumor cells proliferation, Jurkat
[15] = test system: CCRF-CEM; assay: Tumor cell proliferation inhibition (CellTiter-Meiluncell Luminescent Cell Viability Assay), CCRF-CEM; settings: Homo sapiens, 96 h, read-out: inhibitory activity (IC50, nM) against tumor cells proliferation, CCRF-CEM
[16] = test system: SW620; assay: Tumor cell proliferation inhibition (CellTiter-Meiluncell Luminescent Cell Viability Assay), SW620; settings: Homo sapiens, SW-620, 96 h, read-out: inhibitory activity (IC50, nM) against tumor cells proliferation, SW620
[17] = target: T7, GSPT1 (Homo sapiens, UniProt P15170+Q96SW2); assay: Western-blot assay of substrate protein degradation in hPBMCs, GSPT1; assay type: cell-based; settings: 24 hours of compound treatment, compounds tested at 50 nM and 500 nM (concentration of the table not stated)
T7 construct: endogenous in cells; host or cells: hPBMCs (Milecell Biotechnologies)

[18] = test system: Human breast cancer cells (MDA-MB-231); assay: Tumor cell proliferation inhibition (CellTiter-Meiluncell Luminescent Cell Viability Assay), MDA-MB-231; settings: MDA-MB-231, 96 h, read-out: inhibitory activity (IC50, nM) against tumor cells proliferation, MDA-MB-231
[19] = test system: TMD8; assay: Tumor cell proliferation inhibition (CellTiter-Meiluncell Luminescent Cell Viability Assay), TMD8; settings: Homo sapiens, TMD8, 96 h, read-out: inhibitory activity (IC50, nM) against tumor cells proliferation, TMD8

T1 sequence (Q9UKT9 whole entry): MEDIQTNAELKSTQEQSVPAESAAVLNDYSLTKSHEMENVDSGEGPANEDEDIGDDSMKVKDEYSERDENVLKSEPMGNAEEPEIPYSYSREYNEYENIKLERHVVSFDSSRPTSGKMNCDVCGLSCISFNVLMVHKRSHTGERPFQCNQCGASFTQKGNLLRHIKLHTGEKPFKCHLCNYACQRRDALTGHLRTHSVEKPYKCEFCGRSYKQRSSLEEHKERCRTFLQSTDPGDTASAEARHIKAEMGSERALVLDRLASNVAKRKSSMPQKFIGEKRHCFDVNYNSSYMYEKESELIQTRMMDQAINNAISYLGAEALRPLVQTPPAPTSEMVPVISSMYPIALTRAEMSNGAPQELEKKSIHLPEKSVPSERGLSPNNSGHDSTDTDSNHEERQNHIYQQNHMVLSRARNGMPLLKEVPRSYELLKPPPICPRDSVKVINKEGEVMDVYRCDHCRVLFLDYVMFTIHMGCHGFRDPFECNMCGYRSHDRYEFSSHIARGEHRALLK
T1 sequence (Q96SW2 whole entry): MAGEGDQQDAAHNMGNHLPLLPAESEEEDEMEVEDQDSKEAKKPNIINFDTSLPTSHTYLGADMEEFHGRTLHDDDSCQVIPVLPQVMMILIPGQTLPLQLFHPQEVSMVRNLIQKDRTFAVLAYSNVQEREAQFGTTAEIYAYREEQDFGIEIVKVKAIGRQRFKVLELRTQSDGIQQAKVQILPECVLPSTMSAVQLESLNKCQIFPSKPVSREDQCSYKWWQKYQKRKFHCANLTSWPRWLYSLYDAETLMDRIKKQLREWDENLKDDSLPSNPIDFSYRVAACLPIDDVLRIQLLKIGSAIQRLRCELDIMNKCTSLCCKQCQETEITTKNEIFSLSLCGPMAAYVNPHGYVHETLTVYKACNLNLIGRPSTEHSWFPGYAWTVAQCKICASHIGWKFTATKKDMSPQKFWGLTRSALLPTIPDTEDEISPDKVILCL
T1 sequence (Q16531 whole entry partner): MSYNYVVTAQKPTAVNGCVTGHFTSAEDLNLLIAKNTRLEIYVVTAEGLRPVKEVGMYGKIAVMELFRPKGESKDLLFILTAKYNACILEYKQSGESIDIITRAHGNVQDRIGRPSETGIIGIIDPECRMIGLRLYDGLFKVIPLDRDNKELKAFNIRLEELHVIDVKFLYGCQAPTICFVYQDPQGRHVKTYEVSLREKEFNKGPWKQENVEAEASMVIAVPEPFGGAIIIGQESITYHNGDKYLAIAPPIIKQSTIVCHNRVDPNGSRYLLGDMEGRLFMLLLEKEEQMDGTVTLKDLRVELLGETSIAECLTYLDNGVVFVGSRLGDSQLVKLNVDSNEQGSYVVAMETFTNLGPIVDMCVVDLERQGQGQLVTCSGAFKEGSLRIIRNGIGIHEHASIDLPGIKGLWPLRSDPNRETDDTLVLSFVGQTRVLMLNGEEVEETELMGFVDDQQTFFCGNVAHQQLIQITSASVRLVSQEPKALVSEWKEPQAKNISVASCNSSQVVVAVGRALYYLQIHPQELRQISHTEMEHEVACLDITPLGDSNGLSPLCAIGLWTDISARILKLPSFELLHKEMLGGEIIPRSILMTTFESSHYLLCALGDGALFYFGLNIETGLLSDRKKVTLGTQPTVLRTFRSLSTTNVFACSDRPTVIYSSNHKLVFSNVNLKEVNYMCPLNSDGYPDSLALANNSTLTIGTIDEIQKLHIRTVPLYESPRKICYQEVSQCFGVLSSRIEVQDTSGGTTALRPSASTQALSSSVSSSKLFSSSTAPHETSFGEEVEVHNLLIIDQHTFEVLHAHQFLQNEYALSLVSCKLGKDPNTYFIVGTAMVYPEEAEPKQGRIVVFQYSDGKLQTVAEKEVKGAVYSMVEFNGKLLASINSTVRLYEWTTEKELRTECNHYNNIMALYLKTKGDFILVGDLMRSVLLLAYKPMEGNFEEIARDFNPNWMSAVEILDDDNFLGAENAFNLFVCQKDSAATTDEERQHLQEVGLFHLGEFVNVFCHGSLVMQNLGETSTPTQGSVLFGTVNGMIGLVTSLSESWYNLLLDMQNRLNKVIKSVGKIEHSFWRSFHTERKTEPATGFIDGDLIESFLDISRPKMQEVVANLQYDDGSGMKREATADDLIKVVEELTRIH
T7 sequence (P15170 whole entry): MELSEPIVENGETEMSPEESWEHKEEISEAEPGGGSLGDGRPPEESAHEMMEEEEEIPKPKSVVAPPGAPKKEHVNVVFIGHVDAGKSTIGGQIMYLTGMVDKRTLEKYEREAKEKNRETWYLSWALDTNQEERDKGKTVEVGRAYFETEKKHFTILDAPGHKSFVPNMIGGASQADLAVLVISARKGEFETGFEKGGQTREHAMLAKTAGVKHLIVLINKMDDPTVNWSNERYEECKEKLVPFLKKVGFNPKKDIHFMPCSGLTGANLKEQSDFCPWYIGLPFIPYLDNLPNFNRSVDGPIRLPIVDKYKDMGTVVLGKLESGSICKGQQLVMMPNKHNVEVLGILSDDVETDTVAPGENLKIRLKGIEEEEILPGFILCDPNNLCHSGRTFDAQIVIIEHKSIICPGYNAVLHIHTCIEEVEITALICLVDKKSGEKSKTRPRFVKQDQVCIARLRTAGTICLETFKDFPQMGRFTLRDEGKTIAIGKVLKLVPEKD
T7 sequence (Q96SW2 whole entry): as the sequence (Q96SW2 whole entry) above
T7 sequence (Q16531 whole entry partner): as the sequence (Q16531 whole entry partner) above
T6 sequence (Q96SW2 whole entry): as the sequence (Q96SW2 whole entry) above
T4 sequence (P48729 whole entry): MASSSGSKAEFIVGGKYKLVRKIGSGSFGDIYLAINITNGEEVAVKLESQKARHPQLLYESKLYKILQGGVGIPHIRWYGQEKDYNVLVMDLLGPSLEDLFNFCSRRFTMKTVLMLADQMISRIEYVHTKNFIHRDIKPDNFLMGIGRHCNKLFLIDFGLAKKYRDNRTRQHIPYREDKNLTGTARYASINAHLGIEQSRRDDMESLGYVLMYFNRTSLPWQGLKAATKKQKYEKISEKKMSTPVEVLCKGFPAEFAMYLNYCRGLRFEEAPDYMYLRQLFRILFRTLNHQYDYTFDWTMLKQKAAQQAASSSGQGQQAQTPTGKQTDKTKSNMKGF
T4 sequence (Q96SW2 whole entry): as the sequence (Q96SW2 whole entry) above
T4 sequence (Q16531 whole entry partner): as the sequence (Q16531 whole entry partner) above
T5 sequence (Q13422 whole entry): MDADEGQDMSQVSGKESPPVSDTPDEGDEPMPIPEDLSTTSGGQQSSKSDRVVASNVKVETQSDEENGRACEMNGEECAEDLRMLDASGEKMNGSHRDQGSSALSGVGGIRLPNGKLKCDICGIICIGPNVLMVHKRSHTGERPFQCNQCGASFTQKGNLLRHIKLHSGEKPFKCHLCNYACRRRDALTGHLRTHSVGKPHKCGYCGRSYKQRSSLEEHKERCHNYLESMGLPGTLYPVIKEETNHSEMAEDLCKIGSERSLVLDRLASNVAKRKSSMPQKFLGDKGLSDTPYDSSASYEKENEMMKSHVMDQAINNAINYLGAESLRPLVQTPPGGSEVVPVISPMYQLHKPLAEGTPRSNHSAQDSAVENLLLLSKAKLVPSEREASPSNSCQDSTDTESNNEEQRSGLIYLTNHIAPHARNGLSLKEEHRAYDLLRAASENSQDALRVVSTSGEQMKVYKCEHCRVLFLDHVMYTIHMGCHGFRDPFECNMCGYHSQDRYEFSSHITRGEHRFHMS
T5 sequence (Q96SW2 whole entry): as the sequence (Q96SW2 whole entry) above
T5 sequence (Q16531 whole entry partner): as the sequence (Q16531 whole entry partner) above
T2 sequence (Q9UKS7 whole entry): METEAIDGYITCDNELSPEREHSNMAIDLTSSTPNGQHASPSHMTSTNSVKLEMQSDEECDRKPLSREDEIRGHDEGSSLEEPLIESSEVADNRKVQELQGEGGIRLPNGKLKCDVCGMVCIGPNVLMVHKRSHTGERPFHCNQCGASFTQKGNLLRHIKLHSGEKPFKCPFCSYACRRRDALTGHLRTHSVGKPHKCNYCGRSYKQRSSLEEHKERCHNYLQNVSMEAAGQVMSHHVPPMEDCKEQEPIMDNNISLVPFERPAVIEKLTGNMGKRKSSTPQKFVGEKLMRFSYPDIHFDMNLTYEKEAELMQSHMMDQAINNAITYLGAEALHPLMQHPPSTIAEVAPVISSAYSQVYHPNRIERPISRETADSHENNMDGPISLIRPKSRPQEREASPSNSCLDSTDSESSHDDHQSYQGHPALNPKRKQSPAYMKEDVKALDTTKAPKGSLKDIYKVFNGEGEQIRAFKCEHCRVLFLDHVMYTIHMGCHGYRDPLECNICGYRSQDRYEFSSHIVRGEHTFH
T2 sequence (Q96SW2 whole entry): as the sequence (Q96SW2 whole entry) above
T2 sequence (Q16531 whole entry partner): as the sequence (Q16531 whole entry partner) above

IC50 [2] | IC50 [6] | IC50 [7] | IC50 [8] | IC50 [10] | IC50 [11] | IC50 [12] | IC50 [13] | IC50 [14] | IC50 [15] | IC50 [16] | IC50 [19] | SMILES | IKZF3 substrate protein remaining % [1] | IKZF2 substrate protein remaining % [3] | Weel substrate protein remaining % [4] | CK1a substrate protein remaining % [5] | IKZF 1 substrate protein remaining % [9] | GSPT1 substrate protein remaining % [17] | IC50 [18]
10 to 50 nM | 500 to 1000 nM | 100 to 500 nM | 10 to 50 nM | 10 to 50 nM | 500 to 1000 nM | 50 to 100 nM | 500 to 1000 nM | 5 to 10 nM | 10 to 50 nM | 100 to 500 nM | – | O=C1CCC(N2Cc3cc(CN4CCC(c5ccccc5F)CC4)ccc3C2=O)C(=O)N1 (centres unmarked) [GT-04470, 3-(5-((4-(2-fluorophenyl)piperidin-1-yl)methyl)-1-oxoisoindolin-2-yl)piperidine-2,6-dione] | A (0% ≤ substrate protein remaining % ≤ 80%) | A (0% ≤ substrate protein remaining % ≤ 80%) | A (0% ≤ substrate protein remaining % ≤ 80%) | A (0% ≤ substrate protein remaining % ≤ 80%) | A (0% ≤ substrate protein remaining % ≤ 80%) | A (0% ≤ substrate protein remaining % ≤ 80%) | –
1 to 5 nM | 50 to 100 nM | 50 to 100 nM | 1 to 5 nM | 5 to 10 nM | 10 to 50 nM | 10 to 50 nM | 500 to 1000 nM | 1 to 5 nM | 1 to 5 nM | 10 to 50 nM | – | O=C1CCC(N2Cc3cc(CN4CCC(c5cccc(C(F)(F)F)c5)CC4)ccc3C2=O)C(=O)N1 (centres unmarked) [GT-04472, 3-(1-oxo-5-((4-(3-(trifluoromethyl)phenyl)piperidin-1-yl)methyl)isoindolin-2-yl)piperidine-2,6-dione] | A (0% ≤ substrate protein remaining % ≤ 80%) | A (0% ≤ substrate protein remaining % ≤ 80%) | A (0% ≤ substrate protein remaining % ≤ 80%) | B (80%< substrate protein remaining %≤ 100%) | A (0% ≤ substrate protein remaining % ≤ 80%) | A (0% ≤ substrate protein remaining % ≤ 80%) | –
– | – | 10 to 50 nM | – | 1 to 5 nM | – | 5 to 10 nM | 1000 to 1500 nM | 1 to 5 nM | 1 to 5 nM | 50 to 100 nM | 10 to 50 nM | O=C1CCC(N2Cc3cc(CN4CCN(c5cccc(Cl)c5Cl)CC4)ccc3C2=O)C(=O)N1 (centres unmarked) [GT-04201, 3-(5-((4-(2,3-dichlorophenyl)piperazin-1-yl)methyl)-1-oxoisoindolin-2-yl)piperidine-2,6-dione] | B (80%< substrate protein remaining %≤ 100%) | A (0% ≤ substrate protein remaining % ≤ 80%) | A (0% ≤ substrate protein remaining % ≤ 80%) | A (0% ≤ substrate protein remaining % ≤ 80%) | B (80%< substrate protein remaining %≤ 100%) | A (0% ≤ substrate protein remaining % ≤ 80%) | –

SMILES | IC50 [2] | IC50 [6] | IC50 [7] | IC50 [8] | IC50 [10] | IC50 [11] | IC50 [12] | IC50 [13] | IC50 [14] | IC50 [15] | IC50 [16] | IC50 [19] | IKZF3 substrate protein remaining % [1] | IKZF2 substrate protein remaining % [3] | Weel substrate protein remaining % [4] | CK1a substrate protein remaining % [5] | IKZF 1 substrate protein remaining % [9] | GSPT1 substrate protein remaining % [17] | IC50 [18]
Cc1ccsc1C1=CCN(Cc2ccc3c(c2)CN(C2CCC(=O)NC2=O)C3=O)CC1 (centres unmarked) [GT-04495, 3-(5-((4-(3-methylthiophen-2-yl)-3,6-dihydropyridin-1(2H)-yl)methyl)-1-oxoisoindolin-2-yl)piperidine-2,6-dione] | < 1 nM | 1 to 5 nM | 10 to 50 nM | – | < 1 nM | 1 to 5 nM | 1 to 5 nM | < 500 nM | < 1 nM | < 1 nM | 1 to 5 nM | – | B (80%< substrate protein remaining %≤ 100%) | A (0% ≤ substrate protein remaining % ≤ 80%) | B (80%< substrate protein remaining %≤ 100%) | A (0% ≤ substrate protein remaining % ≤ 80%) | B (80%< substrate protein remaining %≤ 100%) | A (0% ≤ substrate protein remaining % ≤ 80%) | 1 to 5 nM
